Common to all, as to type: binding
One assay deals with T1, KRAS G12D (Homo sapiens, UniProt P01116, G12D).
T1 construct: made in house; host or cells: E. coli, e.g. BL21 (DE3)
The assay is described as follows: HTRF assay of K-Ras G12D interaction with SOS1 (PPI-HTRF). As to conditions: HTRF, 5 nM KRAS G12D; read-out: PPI-HTRF-5 nM KRAS G12D. A digest of the protocol: (§1)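 HTRF on GST-K-Ras/His-hSOS1 was measured after ≥10 min in pH 7.4 HEPES buffer. IC50 values were derived from the ratiometric emission signal.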

Another assay deals with T2, KRAS G12S (Homo sapiens, UniProt P01116, G12S).
T2 construct: made in house; host or cells: E. coli, e.g. BL21 (DE3)
T2 sequence (P01116 1-188 isoform P01116-2 G12S): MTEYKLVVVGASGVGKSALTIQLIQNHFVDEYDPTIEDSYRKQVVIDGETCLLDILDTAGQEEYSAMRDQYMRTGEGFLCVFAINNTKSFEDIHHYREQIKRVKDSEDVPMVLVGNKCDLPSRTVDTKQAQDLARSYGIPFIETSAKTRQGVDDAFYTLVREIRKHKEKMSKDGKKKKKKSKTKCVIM
As to the kind of experiment: HTRF assay of K-Ras G12S interaction with SOS1 (PPI-HTRF). The conditions noted are these: 5 nM KRAS G12S, read-out: PPI-HTRF-5 nM KRAS G12S. Put shortly:
as §1

The next assay has as its target T3, KRAS WT (Homo sapiens, UniProt P01116).
T3 construct: made in house; host or cells: E. coli, e.g. BL21 (DE3)
The assay is described as follows: HTRF assay of wildtype K-Ras interaction with SOS1 (PPI-HTRF). As to conditions: HTRF, 5 nM KRAS WT; read-out: PPI-HTRF-5 nM KRAS WT. Put shortly:
as §1

Structures are written as SMILES. Bounds are passed on as bounds.

T1 sequence (P01116 1-188 isoform P01116-2 G12D): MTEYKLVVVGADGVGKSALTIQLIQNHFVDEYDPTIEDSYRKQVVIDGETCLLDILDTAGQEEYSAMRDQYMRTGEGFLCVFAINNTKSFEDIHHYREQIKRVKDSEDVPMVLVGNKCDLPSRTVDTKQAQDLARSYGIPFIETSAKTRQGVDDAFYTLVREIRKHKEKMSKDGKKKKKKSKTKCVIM
T3 sequence (P01116 1-188 isoform P01116-2): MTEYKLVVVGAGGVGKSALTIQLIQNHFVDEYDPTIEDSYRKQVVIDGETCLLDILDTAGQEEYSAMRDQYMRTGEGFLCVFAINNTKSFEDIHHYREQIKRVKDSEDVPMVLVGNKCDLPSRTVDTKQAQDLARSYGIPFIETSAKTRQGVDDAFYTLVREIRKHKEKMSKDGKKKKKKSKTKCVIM

For the compound `N#Cc1c(N)sc2c(F)ccc(-c3c(Cl)cc4c(N5CCOCC6(CCN6C(=O)n6cncn6)C5)nc(OC[C@@]56CCCN5C[C@H](F)C6)nc4c3F)c12` (stereo partly drawn) [Compound 351, 4-(4-(1-(1H-1,2,4-triazole-1-carbonyl)-6-oxa-1,9-diazaspiro[3.6]decan-9-yl)-6-chloro-8-fluoro-2-(((2R,7aS)-2-fluorotetrahydro-1H-pyrrolizin-7a(5H)-yl)methoxy)quinazolin-7-yl)-2-amino-7-fluorobenzo[b]thiophene-3-carbonitrile], the IC50 on KRAS G12D, on KRAS G12S and at KRAS WT was less than 5 µM each time.
As to `N#Cc1c(N)sc2c(F)ccc(-c3c(Cl)cc4c(N5CCC6(CCN6C=O)C5)nc(OC[C@@]56CCCN5C[C@H](F)C6)nc4c3F)c12` (stereo partly drawn) [Compound 227, 2-amino-4-(6-chloro-8-fluoro-2-(((2R,7aS)-2-fluorotetrahydro-1H-pyrrolizin-7a(5H)-yl)methoxy)-4-(1-formyl-1,6-diazaspiro[3.4]octan-6-yl)quinazolin-7-yl)-7-fluorobenzo[b]thiophene-3-carbonitrile], the IC50 on KRAS G12D, on KRAS G12S and on KRAS WT was less than 5 µM each time.
`Nc1nc2c(-c3c(Cl)cc4c(N5CCCC6(CC5)CCN6C=O)nc(OC[C@@]56CCCN5C[C@H](F)C6)nc4c3F)ccc(F)c2s1` (stereo partly drawn) [Compound 233, 7-(7-(2-amino-7-fluorobenzo[d]thiazol-4-yl)-6-chloro-8-fluoro-2-(((2R,7aS)-2-fluorotetrahydro-1H-pyrrolizin-7a(5H)-yl)methoxy)quinazolin-4-yl)-1,7-diazaspiro[3.6]decane-1-carbaldehyde]: the IC50 at KRAS G12D, on KRAS G12S and on KRAS WT was less than 5 µM each time.
Turning to `Cc1nc(Cl)n(C(=O)N2CCC23CCN(c2nc(OC[C@@]45CCCN4C[C@H](F)C5)nc4c(F)c(-c5ccc(F)c6sc(N)c(C#N)c56)c(Cl)cc24)C3)n1` (stereo partly drawn) [Compound 311, 2-amino-4-(6-chloro-4-(1-(5-chloro-3-methyl-1H-1,2,4-triazole-1-carbonyl)-1,6-diazaspiro[3.4]octan-6-yl)-8-fluoro-2-(((2R,7aS)-2-fluorotetrahydro-1H-pyrrolizin-7a(5H)-yl)methoxy)quinazolin-7-yl)-7-fluorobenzo[b]thiophene-3-carbonitrile], the IC50 at KRAS G12D, at KRAS G12S and on KRAS WT was less than 5 µM throughout.
Consider `Nc1nc2c(-c3ccc4c(N5CC6(CNCCN6)C5)nc(OC[C@@]56CCCN5C[C@H](F)C6)nc4c3F)ccc(F)c2s1` [Compound 253, 7-fluoro-4-(8-fluoro-2-(((2R,7aS)-2-fluorotetrahydro-1H-pyrrolizin-7a(5H)-yl)methoxy)-4-(2,5,8-triazaspiro[3.5]nonan-2-yl)quinazolin-7-yl)benzo[d]thiazol-2-amine], for which the IC50 at KRAS G12D was greater than 5 µM; on KRAS G12S, greater than 5 µM; at KRAS WT, less than 5 µM.
In the case of `Cc1nc(C(C)C)nn1C(=O)N1CCC12CCN(c1nc(OC[C@@]34CCCN3C[C@H](F)C4)nc3c(F)c(-c4ccc(F)c5sc(N)c(C#N)c45)c(Cl)cc13)C2` (stereo partly drawn) [Compound 266, 2-amino-4-(6-chloro-8-fluoro-2-(((2R,7aS)-2-fluorotetrahydro-1H-pyrrolizin-7a(5H)-yl)methoxy)-4-(1-(3-isopropyl-5-methyl-1H-1,2,4-triazole-1-carbonyl)-1,6-diazaspiro[3.4]octan-6-yl)quinazolin-7-yl)-7-fluorobenzo[b]thiophene-3-carbonitrile], the IC50 on KRAS G12D, on KRAS G12S and on KRAS WT was less than 5 µM in each case.
As for `N#Cc1c(N)sc2c(F)ccc(-c3c(Cl)cc4c(N5CCC6(CC5)CCN6C(=O)[C@@H]5N[C@H]5C5CC5)nc(OC[C@@]56CCCN5C[C@H](F)C6)nc4c3F)c12` [Compound 262, 2-amino-4-(6-chloro-4-(1-((2R,3S)-3-cyclopropylaziridine-2-carbonyl)-1,7-diazaspiro[3.5]nonan-7-yl)-8-fluoro-2-(((2R,7aS)-2-fluorotetrahydro-1H-pyrrolizin-7a(5H)-yl)methoxy)quinazolin-7-yl)-7-fluorobenzo[b]thiophene-3-carbonitrile], the IC50 at KRAS G12D, on KRAS G12S and at KRAS WT was less than 5 µM each time.
As to `N#Cc1c(N)sc2c(F)ccc(-c3c(Cl)cc4c(N5CCC6(COCCN6C#N)C5)nc(OC[C@@]56CCCN5C[C@H](F)C6)nc4c3F)c12` (stereo partly drawn) [Compound 302, 2-(7-(2-amino-3-cyano-7-fluorobenzo[b]thiophen-4-yl)-6-chloro-8-fluoro-2-(((2R,7aS)-2-fluorotetrahydro-1H-pyrrolizin-7a(5H)-yl)methoxy)quinazolin-4-yl)-9-oxa-2,6-diazaspiro[4.5]decane-6-carbonitrile], the IC50 on KRAS G12D, on KRAS G12S and at KRAS WT was less than 5 µM in each case.
In the case of `C#Cc1c(F)ccc2cc(O)cc(-c3ncc4c(N5CCC6(CCN6C(=O)n6cncn6)C5)nc(OC[C@@]56CCCN5C[C@H](F)C6)nc4c3F)c12` (stereo partly drawn) [Compound 270, (6-(7-(8-ethynyl-7-fluoro-3-hydroxynaphthalen-1-yl)-8-fluoro-2-(((2R,7aS)-2-fluorotetrahydro-1H-pyrrolizin-7a(5H)-yl)methoxy)pyrido[4,3-d]pyrimidin-4-yl)-1,6-diazaspiro[3.4]octan-1-yl)(1H-1,2,4-triazol-1-yl)methanone], the IC50 at KRAS G12D, on KRAS G12S and at KRAS WT was less than 5 µM each time.
In the case of `C[C@H](Oc1nc(N2CC[C@@]3(CCN3C(=O)C3CC3(F)F)C2)c2cc(Cl)c(-c3ccc(F)c4sc(N)c(C#N)c34)c(F)c2n1)[C@@H]1CCCN1C` (stereo partly drawn) [Compound 346, (4S)-2-amino-4-(6-chloro-4-((4R)-1-(2,2-difluorocyclopropane-1-carbonyl)-1,6-diazaspiro[3.4]octan-6-yl)-8-fluoro-2-((S)-1-((S)-1-methylpyrrolidin-2-yl)ethoxy)quinazolin-7-yl)-7-fluorobenzo[b]thiophene-3-carbonitrile], the IC50 at KRAS G12D, at KRAS G12S and at KRAS WT was less than 5 µM in each case.
On to `N#Cc1c(N)sc2c(F)ccc(-c3c(Cl)cc4c(N5CCC6(CCN6C(=O)n6nc(C7CC7)nc6Cl)C5)nc(OC[C@@]56CCCN5C[C@H](F)C6)nc4c3F)c12` (stereo partly drawn) [Compound 288, 2-amino-4-(6-chloro-4-(1-(5-chloro-3-cyclopropyl-1H-1,2,4-triazole-1-carbonyl)-1,6-diazaspiro[3.4]octan-6-yl)-8-fluoro-2-(((2R,7aS)-2-fluorotetrahydro-1H-pyrrolizin-7a(5H)-yl)methoxy)quinazolin-7-yl)-7-fluorobenzo[b]thiophene-3-carbonitrile], for which the IC50 at KRAS G12D, at KRAS G12S and at KRAS WT was less than 5 µM in each case.
Consider `N#CCC(=O)N1CC[C@@]12CCN(c1nc(OC[C@@]34CCCN3C[C@H](F)C4)nc3c(F)c(-c4ccc(F)c5sc(N)c(C#N)c45)c(Cl)cc13)C2` [Compound 316], for which the IC50 on KRAS G12D, at KRAS G12S and at KRAS WT was less than 5 µM in each case.
On to `C#Cc1c(F)ccc2cc(O)cc(-c3ncc4c(N5CCC6(CCN6)C5)nc(O[C@@H](C)[C@@H]5CCCN5C)nc4c3F)c12` (stereo partly drawn) [Compound 239, 5-ethynyl-6-fluoro-4-(8-fluoro-2-((S)-1-((S)-1-methylpyrrolidin-2-yl)ethoxy)-4-(1,6-diazaspiro[3.4]octan-6-yl)pyrido[4,3-d]pyrimidin-7-yl)naphthalen-2-ol], for which the IC50 at KRAS G12D is greater than 5 µM; at KRAS G12S it was less than 5 µM; on KRAS WT it was less than 5 µM.
For the compound `Nc1nc2c(-c3c(Cl)cc4c(N5CCC6(CCN6)CC5)nc(OC[C@@]56CCCN5C[C@H](F)C6)nc4c3F)ccc(F)c2s1` [Compound 265, 4-(6-chloro-8-fluoro-2-(((2R,7aS)-2-fluorotetrahydro-1H-pyrrolizin-7a(5H)-yl)methoxy)-4-(1,7-diazaspiro[3.5]nonan-7-yl)quinazolin-7-yl)-7-fluorobenzo[d]thiazol-2-amine], the IC50 at KRAS G12D is less than 5 µM; on KRAS G12S it was greater than 5 µM; on KRAS WT, less than 5 µM.
As to `C[C@H](Oc1nc(N2CCCC3(CCN3C(=O)[C@@H]3C[C@H]3C#N)C2)c2cc(Cl)c(-c3ccc(F)c4sc(N)c(C#N)c34)c(F)c2n1)[C@@H]1CCCN1C` (stereo partly drawn) [Compound 235, 2-amino-4-(6-chloro-4-(1-((1R,2R)-2-cyanocyclopropane-1-carbonyl)-1,6-diazaspiro[3.5]nonan-6-yl)-8-fluoro-2-((S)-1-((S)-1-methylpyrrolidin-2-yl)ethoxy)quinazolin-7-yl)-7-fluorobenzo[b]thiophene-3-carbonitrile], the IC50 on KRAS G12D, on KRAS G12S and on KRAS WT was less than 5 µM in each case.
In the case of `N#Cc1cn(C(=O)N2CCC23CCN(c2nc(OC[C@@]45CCCN4C[C@H](F)C5)nc4c(F)c(-c5ccc(F)c6sc(N)c(C#N)c56)c(Cl)cc24)C3)cn1` (stereo partly drawn) [Compound 310, 1-(6-(7-(2-amino-3-cyano-7-fluorobenzo[b]thiophen-4-yl)-6-chloro-8-fluoro-2-(((2R,7aS)-2-fluorotetrahydro-1H-pyrrolizin-7a(5H)-yl)methoxy)quinazolin-4-yl)-1,6-diazaspiro[3.4]octane-1-carbonyl)-1H-imidazole-4-carbonitrile], the IC50 on KRAS G12D, on KRAS G12S and on KRAS WT was less than 5 µM in each case.
